Key:
[1] = system: mouse hippocampal neuronal cells HT22; assay: Inhibition of Erastin-induced ferroptosis, CCK8 cell viability test, HT22; type: cell-based; conditions: 24 h
Protocol: (§1) Experimental method: In this example, a screening model for ferroptosis was constructed to investigate a ferroptosis inhibitor. Specifically, the screening model for ferroptosis was mainly based on the CCK8 cell viability test. Firstly, mouse hippocampal neuronal cells HT22 and human neuroblastoma SH-SY5Y cells were cultured in a dish. 80 μL of cells (5000 cells/well) in logarithmic growth phase were seeded to a 96-well plate per well, and then cultured in an incubator at 37° C., 5% CO2 to allow adhesion of cells. After 24 h, 10 μL of the compound of the present disclosure at various concentrations prepared with the specified medium and 10 μL of Erastin (ferroptosis inducer) at a final concentration of […] were added. 3 replicate wells were set for each compound to ensure the accuracy of the results. A positive control group (10 μL of a certain concentration of the compound Ferrostain-1 and 10 μL of Erastin (ferroptosis inducer) prepared with the same medium were added with reference to the above description). […] The absorbance at 450 nm was detected by a microplate reader to calculate the inhibition rate of ferroptosis by the drug. […]
(§2) The inhibition rate change curve was fitted and the IC50 was calculated by the software GraphPadPrism6.

[2] = system: human neuroblastoma SH-SY5Y cells; assay: Inhibition of Erastin-induced ferroptosis, CCK8 cell viability test, SH-SY5Y; type: cell-based; conditions: Erastin at a final concentration of 10 M, 24 h
Protocol: as §1, §2

Row | IC50 ([2]; Homo sapiens) [nM] | IC50 [2] [nM] | SMILES | IC50 ([1]; Mus musculus, HT-22, HT22, Erastin at a final concentration of 10 µM) [nM] | IC50 ([1]; HT22, Erastin at a final concentration of 10 µM) [nM]
1 | 1.41 |  | CC(c1ccc(N2CCN(C)CC2)cc1)c1ccc2c(c1)Nc1ccccc1S2 (stereo not shown) | 2.87 | 
2 |  | 53.9 | CCOC(=O)c1ccc(NC2CCCCC2)c(N)c1 [Ferrostain-1] |  | 96.2

From patent US20250145605A1, “CRYSTAL FORM AND SALT OF PHENOTHIAZINE COMPOUND, PREPARATION METHOD THEREFOR AND USE THEREOF” (CHENGDU HENGHAO INNOVATIVE SCIENCE AND TECHNOLOGY CO., LTD., priority 2022, published 2025)
